Data: US11083725B2 (priority 2014, dated 2021)

Tested on: NHBE cells
Test: Biolog metabolic array: substrate use by NHBE cells with or without CA09 infection
Type: cell-based, human
Conditions: for Substrate use, 590 nm absorbance normalized to zero hour, 0 hr: Biolog PMM2, 0 hr; for Substrate use, 590 nm absorbance normalized to zero hour, 1 hr: Biolog PMM2, 1 hr; for Substrate use, 590 nm absorbance normalized to zero hour, 5 hr: Biolog PMM2, 5 hr; for Substrate use, 590 nm absorbance normalized to zero hour, 7 hr: Biolog PMM2, 7 hr
[1] = Control (uninfected) NHBE cells
[2] = Virus (CA09-infected, MOI 1) NHBE cells
[3] = Virus: CA09-infected NHBE cells, MOI 1, Biolog PMM2
[4] = Virus (CA09-infected NHBE cells, MOI 1)
[5] = Virus (CA09, MOI 1) infected NHBE cells

SMILES | 590 nm absorbance normalized to zero hour (substrate use), 0 hr [1] | 590 nm absorbance normalized to zero hour (substrate use), 1 hr [1] | 590 nm absorbance normalized to zero hour (substrate use), 2 hr [1] | 590 nm absorbance normalized to zero hour (substrate use), 3 hr [1] | 590 nm absorbance normalized to zero hour (substrate use), 4 hr [1] | 590 nm absorbance normalized to zero hour (substrate use), 6 hr [1] | 590 nm absorbance normalized to zero hour (substrate use), 8 hr [1] | 590 nm absorbance normalized to zero hour (substrate use), 9 hr [1] | 590 nm absorbance normalized to zero hour (substrate use), 10 hr [1] | 590 nm absorbance normalized to zero hour (substrate use), 11 hr [1] | Substrate use, 590 nm absorbance normalized to zero hour, 0 hr [1] | Substrate use, 590 nm absorbance normalized to zero hour, 1 hr [1] | Substrate use, 590 nm absorbance normalized to zero hour, 5 hr [1] | Substrate use, 590 nm absorbance normalized to zero hour, 7 hr [1] | 590 nm absorbance normalized to zero hour (substrate use), 0 hr [3] | 590 nm absorbance normalized to zero hour (substrate use), 1 hr [3] | 590 nm absorbance normalized to zero hour (substrate use), 2 hr [3] | 590 nm absorbance normalized to zero hour (substrate use), 3 hr [3] | 590 nm absorbance normalized to zero hour (substrate use), 4 hr [3] | 590 nm absorbance normalized to zero hour (substrate use), 5 hr [3] | further results
OCC1OC(OC2C(CO)OC(OC3C(CO)OC(O)C(O)C3O)C(O)C2O)C(O)C(O)C1O (stereo not drawn) [Malto-triose] | 1.00 | 2.27 | 3.36 | 4.16 | 4.58 | 5.62 | 7.97 | 7.32 | 6.88 | 8.46 | 1.00 | 2.27 | 6.09 | 7.39 | 1.00 | 2.01 | 3.05 | 3.70 | 4.08 | 5.20 | 590 nm absorbance normalized to zero hour (substrate use), 0 hr [2]: 1.00; 590 nm absorbance normalized to zero hour (substrate use), 1 hr [2]: 2.01; 590 nm absorbance normalized to zero hour (substrate use), 2 hr [2]: 3.05; 590 nm absorbance normalized to zero hour (substrate use), 3 hr [2]: 3.70; 590 nm absorbance normalized to zero hour (substrate use), 4 hr [2]: 4.08; 590 nm absorbance normalized to zero hour (substrate use), 5 hr [2]: 5.20; 590 nm absorbance normalized to zero hour (substrate use), 6 hr [2]: 5.81; 590 nm absorbance normalized to zero hour (substrate use), 7 hr [2]: 6.29; 590 nm absorbance normalized to zero hour (substrate use), 8 hr [2]: 6.78; 590 nm absorbance normalized to zero hour (substrate use), 9 hr [2]: 7.44; 590 nm absorbance normalized to zero hour (substrate use), 10 hr [2]: 6.04; 590 nm absorbance normalized to zero hour (substrate use), 11 hr [2]: 6.50; 590 nm absorbance normalized to zero hour (substrate use), 6 hr [3]: 5.81; 590 nm absorbance normalized to zero hour (substrate use), 7 hr [3]: 6.29; 590 nm absorbance normalized to zero hour (substrate use), 8 hr [3]: 6.78; 590 nm absorbance normalized to zero hour (substrate use), 9 hr [3]: 7.44; 590 nm absorbance normalized to zero hour (substrate use), 10 hr [3]: 6.04; 590 nm absorbance normalized to zero hour (substrate use), 11 hr [3]: 6.50
OC[C@@H](O)[C@@H](O)CO [i-Erythritol] | 1.00 | 1.76 | 2.33 | 2.67 | 2.83 | 5.19 | 3.84 | 4.30 | 4.08 | 4.22 | 1.00 | 1.76 | 3.31 | 3.78 | 1.00 | 0.23 | 0.29 | 0.32 | 0.34 | 0.39 | 590 nm absorbance normalized to zero hour (substrate use), 0 hr [4]: 1.00; 590 nm absorbance normalized to zero hour (substrate use), 1 hr [4]: 0.23; 590 nm absorbance normalized to zero hour (substrate use), 2 hr [4]: 0.29; 590 nm absorbance normalized to zero hour (substrate use), 3 hr [4]: 0.32; 590 nm absorbance normalized to zero hour (substrate use), 4 hr [4]: 0.34; 590 nm absorbance normalized to zero hour (substrate use), 5 hr [4]: 0.39; 590 nm absorbance normalized to zero hour (substrate use), 6 hr [4]: 0.41; 590 nm absorbance normalized to zero hour (substrate use), 7 hr [4]: 0.43; 590 nm absorbance normalized to zero hour (substrate use), 8 hr [4]: 0.45; 590 nm absorbance normalized to zero hour (substrate use), 9 hr [4]: 0.49; 590 nm absorbance normalized to zero hour (substrate use), 10 hr [4]: 0.50; 590 nm absorbance normalized to zero hour (substrate use), 11 hr [4]: 0.53; 590 nm absorbance normalized to zero hour (substrate use), 6 hr [3]: 0.41; 590 nm absorbance normalized to zero hour (substrate use), 7 hr [3]: 0.43; 590 nm absorbance normalized to zero hour (substrate use), 8 hr [3]: 0.45; 590 nm absorbance normalized to zero hour (substrate use), 9 hr [3]: 0.49; 590 nm absorbance normalized to zero hour (substrate use), 10 hr [3]: 0.50; 590 nm absorbance normalized to zero hour (substrate use), 11 hr [3]: 0.53
O=C(O)CCC(=O)C(=O)O [a-Keto-Glutaric Acid] | 1.00 | 1.29 | 1.54 | 1.40 | 1.45 | 1.98 | 1.69 | 1.80 | 1.93 | 2.00 | 1.00 | 1.29 | 1.52 | 1.61 | 1.00 | 0.28 | 0.37 | 0.45 | 0.46 | 0.51 | 590 nm absorbance normalized to zero hour (substrate use), 0 hr [4]: 1.00; 590 nm absorbance normalized to zero hour (substrate use), 1 hr [4]: 0.28; 590 nm absorbance normalized to zero hour (substrate use), 2 hr [4]: 0.37; 590 nm absorbance normalized to zero hour (substrate use), 3 hr [4]: 0.45; 590 nm absorbance normalized to zero hour (substrate use), 4 hr [4]: 0.46; 590 nm absorbance normalized to zero hour (substrate use), 5 hr [4]: 0.51; 590 nm absorbance normalized to zero hour (substrate use), 6 hr [4]: 0.54; 590 nm absorbance normalized to zero hour (substrate use), 7 hr [4]: 0.56; 590 nm absorbance normalized to zero hour (substrate use), 8 hr [4]: 0.58; 590 nm absorbance normalized to zero hour (substrate use), 9 hr [4]: 0.64; 590 nm absorbance normalized to zero hour (substrate use), 10 hr [4]: 0.64; 590 nm absorbance normalized to zero hour (substrate use), 11 hr [4]: 0.69; 590 nm absorbance normalized to zero hour (substrate use), 6 hr [3]: 0.54; 590 nm absorbance normalized to zero hour (substrate use), 7 hr [3]: 0.56; 590 nm absorbance normalized to zero hour (substrate use), 8 hr [3]: 0.58; 590 nm absorbance normalized to zero hour (substrate use), 9 hr [3]: 0.64; 590 nm absorbance normalized to zero hour (substrate use), 10 hr [3]: 0.64; 590 nm absorbance normalized to zero hour (substrate use), 11 hr [3]: 0.69
O=C[C@H](O)[C@@H](O)[C@@H](O)[C@H](O)CO [D-Galactose] |  | 0.95 | 1.46 | 1.73 | 1.56 | 1.78 | 2.22 | 2.53 | 2.67 | 2.53 |  | 0.95 | 1.88 | 2.03 |  |  |  |  |  |  | Substrate use, 590 nm absorbance normalized to zero hour, 1 hr [5]: 0.91; Substrate use, 590 nm absorbance normalized to zero hour, 5 hr [5]: 1.89; Substrate use, 590 nm absorbance normalized to zero hour, 7 hr [5]: 2.16; 590 nm absorbance normalized to zero hour (substrate use), 1 hr [2]: 0.91; 590 nm absorbance normalized to zero hour (substrate use), 2 hr [2]: 1.21; 590 nm absorbance normalized to zero hour (substrate use), 3 hr [2]: 1.47; 590 nm absorbance normalized to zero hour (substrate use), 4 hr [2]: 1.60; 590 nm absorbance normalized to zero hour (substrate use), 6 hr [2]: 2.03; 590 nm absorbance normalized to zero hour (substrate use), 8 hr [2]: 2.29; 590 nm absorbance normalized to zero hour (substrate use), 9 hr [2]: 2.54; 590 nm absorbance normalized to zero hour (substrate use), 10 hr [2]: 2.63; 590 nm absorbance normalized to zero hour (substrate use), 11 hr [2]: 2.86
